Patent publication US20240180872A1, “METHODS AND COMPOUNDS OF CANNABIDIOL, MELATONIN AND AKBA FOR TREATING PANCREATIC CANCER” (priority 2021, published 2024)

Test system: pancreatic adenocarcinoma associated genes
Experiment: TaqMan Array gene expression in MIAPaCa-2, normalized for GAPDH
Type: cell-based, Human
Conditions: Mia-PACA-2, 24 hs, CBD 3.8, MLT 200, AKBA 7.5 micrograms/ml
Protocol: Total RNA from untreated or CBD, MLT, AKBA alone and in combination treated cell lines was extracted using Rneasy Mini kit (Qiagen, Milan, Italy). One microgram of total RNA from each sample was subjected to reverse transcription in a total volume of 20 μL using the High-Capacity cDNA Archive Kit (Applied Biosystem, Foster City, […], USA) according to the instructions. cDNAs were analyzed by qRT-PCR performed using an IQ5 Multicolor Real time PCR Detection system. Quantitative real-time gene expression was performed with the TaqMan® Array Human Pancreatic Adenocarcinoma 96-well Plate, containing 92 assays to pancreatic adenocarcinoma associated genes and 4 assays to candidate endogenous control genes, was purchased (Thermo Fisher, Grand Island, NY, USA) and used to evaluate the treatments in modulating PDAC-related genes (Table 1). Measurement of different housekeeping genes (GAPDH; HPRT1; GUSB) on the samples was used to normalize mRNA content. The gene expression levels of treated cell lines were expressed as relative fold compared with untreated or vehicle-treated cells.
To elucidate the molecular events induced by CBD, MLT and AKBA alone and in combination, 92 genes involved in PDAC progression and aggressiveness were evaluated by Taqman Array. Both cell lines were treated with CBD, MLT and AKBA alone and in combination, and the molecular pathways of PDAC associated gene were evaluated.
Target mRNA levels were normalized for GAPDH expression.

[1] = normalized for GAPDH, Akt pathways
[2] = normalized for GAPDH, Akt-pathways
[3] = normalized for GAPDH, DNA repair
[4] = normalized for GAPDH, NfkB pathways
[5] = normalized for GAPDH, Ras pathways
[6] = normalized for GAPDH, TGF patways
[7] = normalized for GAPDH, TGF-patways
[8] = normalized for GAPDH, angiogenesis
[9] = normalized for GAPDH, apoptosis
[10] = normalized for GAPDH, cell cycle
[11] = normalized for GAPDH, inflammation
[12] = normalized for GAPDH, proliferation

**Q.** How did the GAPDH relative expression (GAPDH is the normalizer) turn out when `C=C(C)[C@@H]1CCC(C)=C[C@H]1c1c(O)cc(CCCCC)cc1O` [CBD, 2-[(1R,6R)-3-methyl-6-prop-1-en-2-ylcyclohex-2-en-1-yl]-5-pentylbenzene-1,3-diol] was run?
**A.** The GAPDH relative expression was 1.00.

**Q.** And the PK3CB relative expression [1]?
**A.** Its PK3CB relative expression is 0.10.

**Q.** And the PK3CD relative expression [1]?
**A.** Its PK3CD relative expression is 0.08.

**Q.** What about the AKT1 relative expression [2] of the same molecule?
**A.** Its AKT1 relative expression is 0.10.

**Q.** And the AKT2 relative expression [2]?
**A.** The AKT2 relative expression was 0.54.

**Q.** And the AKT3 relative expression [2]?
**A.** Its AKT3 relative expression is 0.00.

**Q.** What about the IGF1 relative expression [2] of the same molecule?
**A.** Its IGF1 relative expression is 0.00.

**Q.** And the PK3CA relative expression [2]?
**A.** Its PK3CA relative expression is 0.03.

**Q.** What about the PK3R1 relative expression [2] of the same molecule?
**A.** The PK3R1 relative expression was 0.04.

**Q.** And the BRCA2 relative expression [3]?
**A.** The BRCA2 relative expression was 0.16.

**Q.** And the MDM2 relative expression [3]?
**A.** Its MDM2 relative expression is 0.04.

**Q.** What about the TP53 relative expression [3] of the same molecule?
**A.** The TP53 relative expression was 0.22.

**Q.** And the HSP90AA1 relative expression (normalized for GAPDH, Heat sock protein)?
**A.** The HSP90AA1 relative expression was 0.42.

**Q.** What about the NFKB1 relative expression [4] of the same molecule?
**A.** The NFKB1 relative expression was 0.04.

**Q.** And the NFKB2 relative expression [4]?
**A.** The NFKB2 relative expression was 0.15.

**Q.** What about the REL relative expression [4] of the same molecule?
**A.** The REL relative expression was 0.11.

**Q.** What about the RELA relative expression [4] of the same molecule?
**A.** Its RELA relative expression is 0.06.

**Q.** And the RELB relative expression [4]?
**A.** The RELB relative expression was 0.26.

**Q.** And the RHOA relative expression [4]?
**A.** The RHOA relative expression was 0.34.

**Q.** And the RHOB relative expression [4]?
**A.** Its RHOB relative expression is 0.04.

**Q.** What about the BRAF relative expression [5] of the same molecule?
**A.** The BRAF relative expression was 0.22.

**Q.** And the E2F1 relative expression [5]?
**A.** Its E2F1 relative expression is 0.15.

**Q.** And the E2F3 relative expression [5]?
**A.** The E2F3 relative expression was 0.08.

**Q.** And the E2F4 relative expression [5]?
**A.** Its E2F4 relative expression is 0.19.

**Q.** What about the EGF relative expression [5] of the same molecule?
**A.** The EGF relative expression was 0.00.

**Q.** What about the EGFR relative expression [5] of the same molecule?
**A.** Its EGFR relative expression is 0.21.

**Q.** And the ELK1 relative expression [5]?
**A.** Its ELK1 relative expression is 0.09.

**Q.** What about the ERBB2 relative expression [5] of the same molecule?
**A.** The ERBB2 relative expression was 0.02.

**Q.** And the GRB2 relative expression [5]?
**A.** The GRB2 relative expression was 0.13.

**Q.** What about the HBEGF relative expression [5] of the same molecule?
**A.** Its HBEGF relative expression is 0.13.

**Q.** What about the KRAS relative expression [5] of the same molecule?
**A.** The KRAS relative expression was 0.09.

**Q.** And the MAP2K1 relative expression [5]?
**A.** The MAP2K1 relative expression was 0.00.

**Q.** And the MAP2K2 relative expression [5]?
**A.** Its MAP2K2 relative expression is 0.08.

**Q.** What about the MAPK1 relative expression [5] of the same molecule?
**A.** Its MAPK1 relative expression is 0.07.

**Q.** And the MAPK3 relative expression [5]?
**A.** The MAPK3 relative expression was 0.01.

**Q.** And the RAF1 relative expression [5]?
**A.** The RAF1 relative expression was 0.01.

**Q.** And the RB1 relative expression [5]?
**A.** Its RB1 relative expression is 0.06.

**Q.** And the SOS1 relative expression [5]?
**A.** Its SOS1 relative expression is 0.06.

**Q.** What about the TGFB2 relative expression [6] of the same molecule?
**A.** Its TGFB2 relative expression is 0.08.

**Q.** What about the TGFB3 relative expression [6] of the same molecule?
**A.** Its TGFB3 relative expression is 0.00.

**Q.** And the TGFBR1 relative expression [6]?
**A.** Its TGFBR1 relative expression is 0.02.

**Q.** And the SMAD2 relative expression [7]?
**A.** The SMAD2 relative expression was 0.06.

**Q.** And the SMAD3 relative expression [7]?
**A.** Its SMAD3 relative expression is 0.18.

**Q.** What about the SMAD4 relative expression [7] of the same molecule?
**A.** Its SMAD4 relative expression is 0.07.

**Q.** And the TGFA relative expression [7]?
**A.** Its TGFA relative expression is 0.64.

**Q.** What about the TGFB1 relative expression [7] of the same molecule?
**A.** Its TGFB1 relative expression is 0.06.

**Q.** What about the TGFBR2 relative expression [7] of the same molecule?
**A.** The TGFBR2 relative expression was 0.00.

**Q.** And the FIGF relative expression [8]?
**A.** Its FIGF relative expression is 0.11.

**Q.** What about the VEGFA relative expression [8] of the same molecule?
**A.** Its VEGFA relative expression is 0.02.

**Q.** And the VEGFB relative expression [8]?
**A.** Its VEGFB relative expression is 0.06.

**Q.** What about the VEGFC relative expression [8] of the same molecule?
**A.** Its VEGFC relative expression is 0.03.

**Q.** And the BCL2L1 relative expression [9]?
**A.** The BCL2L1 relative expression was 0.26.

**Q.** And the BCL2 relative expression [9]?
**A.** Its BCL2 relative expression is 0.00.

**Q.** What about the BIRC5 relative expression [9] of the same molecule?
**A.** Its BIRC5 relative expression is 0.11.

**Q.** And the CCNA2 relative expression [10]?
**A.** Its CCNA2 relative expression is 0.01.

**Q.** And the CCNB1 relative expression [10]?
**A.** The CCNB1 relative expression was 0.37.

**Q.** What about the CCND1 relative expression [10] of the same molecule?
**A.** Its CCND1 relative expression is 0.11.

**Q.** And the CCND2 relative expression [10]?
**A.** Its CCND2 relative expression is 0.00.

**Q.** What about the CCNE1 relative expression [10] of the same molecule?
**A.** The CCNE1 relative expression was 0.10.

**Q.** And the CCNE2 relative expression [10]?
**A.** The CCNE2 relative expression was 0.12.

**Q.** And the CDC42 relative expression [10]?
**A.** Its CDC42 relative expression is 0.05.

**Q.** What about the CDK2 relative expression [10] of the same molecule?
**A.** Its CDK2 relative expression is 0.15.

**Q.** And the CDK4 relative expression [10]?
**A.** The CDK4 relative expression was 0.25.

**Q.** What about the CDKN1A relative expression [10] of the same molecule?
**A.** The CDKN1A relative expression was 0.04.

**Q.** What about the CDKN1B relative expression [10] of the same molecule?
**A.** Its CDKN1B relative expression is 0.11.

**Q.** And the CDKN2A relative expression [10]?
**A.** The CDKN2A relative expression was 0.26.

**Q.** What about the CDKN2B relative expression [10] of the same molecule?
**A.** The CDKN2B relative expression was 0.42.

**Q.** And the CDKN2C relative expression [10]?
**A.** The CDKN2C relative expression was 0.03.

**Q.** What about the CDKN2D relative expression [10] of the same molecule?
**A.** Its CDKN2D relative expression is 0.04.

**Q.** What about the IL6 relative expression [11] of the same molecule?
**A.** Its IL6 relative expression is 0.00.

**Q.** What about the JAK1 relative expression [11] of the same molecule?
**A.** The JAK1 relative expression was 0.27.

**Q.** And the JAK2 relative expression [11]?
**A.** Its JAK2 relative expression is 0.01.

**Q.** And the JAK3 relative expression [11]?
**A.** The JAK3 relative expression was 0.01.

**Q.** What about the STAT1 relative expression [11] of the same molecule?
**A.** Its STAT1 relative expression is 0.11.

**Q.** What about the STAT2 relative expression [11] of the same molecule?
**A.** Its STAT2 relative expression is 0.04.

**Q.** What about the STAT3 relative expression [11] of the same molecule?
**A.** The STAT3 relative expression was 0.06.

**Q.** And the STAT6 relative expression [11]?
**A.** The STAT6 relative expression was 0.79.

**Q.** And the STATSB relative expression [11]?
**A.** Its STATSB relative expression is 0.03.

**Q.** What about the MMP1 relative expression (normalized for GAPDH, invasion) of the same molecule?
**A.** Its MMP1 relative expression is 0.00.

**Q.** What about the MMP2 relative expression (normalized for GAPDH, invasion) of the same molecule?
**A.** The MMP2 relative expression was 0.07.

**Q.** And the MMP3 relative expression (normalized for GAPDH, invasion)?
**A.** The MMP3 relative expression was 0.00.

**Q.** And the MMP7 relative expression (normalized for GAPDH, invasion)?
**A.** Its MMP7 relative expression is 0.01.

**Q.** And the MMP9 relative expression (normalized for GAPDH, invasion)?
**A.** Its MMP9 relative expression is 0.01.

**Q.** What about the PTGS2 relative expression (normalized for GAPDH, invasion) of the same molecule?
**A.** Its PTGS2 relative expression is 0.00.

**Q.** And the RAC1 relative expression (normalized for GAPDH, invasion)?
**A.** The RAC1 relative expression was 0.11.

**Q.** What about the RAC2 relative expression (normalized for GAPDH, invasion) of the same molecule?
**A.** The RAC2 relative expression was 0.01.

**Q.** And the KIT relative expression [12]?
**A.** The KIT relative expression was 0.00.

**Q.** And the NOTCH1 relative expression [12]?
**A.** Its NOTCH1 relative expression is 0.02.

**Q.** And the SRC relative expression [12]?
**A.** The SRC relative expression was 0.03.
